The results in this text go back to patent US20250130239A1, “PROTEIN DEGRADER” (University of Dundee, priority 2021, published 2025).

SMILES strings stand for the structures.

Data set [1] deals with T1, PPM1H (Q9ULR3), BromoTag C-term (Homo sapiens, UniProt O60885+P40337, L387A).
T1 construct: comprising residues 368-440 of human Brd4; PPM1H (endogenous protein, fusion partner in the same polypeptide); expressed in transfected cells
In words: Degradation of BromoTag'ed PPM1H by AGB1. The format is cell-based. An excerpt:
(§1) Degradation of a variety of target proteins. […] We performed CRISPR knock-in of the BromoTag, as described, into the endogenous loci of five additional proteins. […] The target proteins of Table 6 are all different, are all known to have different cellular roles and function, intracellular expression, and distinctive turnover rates within cells.

For data set [2], the target named is T2, BRD4 (O60885), BromoTag N-term (Homo sapiens, UniProt O60885+P40337, L387A).
T2 construct: comprising residues 368-440 of human Brd4; expressed in transfected cells
In words: Degradation of BromoTag'ed BRD4 by AGB1. The format is cell-based.
Description: as §1

The nature of the next data set: Plasma stability. The conditions noted are these: mouse plasma, 37° C., over 1 h. The format is in vitro ADME. Here is the method: Plasma Stability. Plasma stability studies were outsourced and undertaken by Shanghai ChemPartner Co., Ltd. Buffer preparation: A solution of 0.05 M sodium phosphate and 0.07 M NaCl buffer at pH 7.4 was made by dissolving 14.505 g/L Na2HPO4·12H2O, 1.483 g/L NaH2PO4·2H2O and 4.095 g/L NaCl in deionized water and the pH adjusted with phosphoric acid. Plasma preparation: Frozen mouse plasma was thawed by placing at 37° C. quickly. The thawed plasma was centrifuged at 3,000 rpm for 8 min to remove clots and the supernatant was pooled to be used as the plasma in the experiment. The plasma (pH 7.4-8.0) was stored on ice until used. […] Plasma and spiking solutions were pre-warmed at 37° C. for 5 min, then 10 μL of pre-warmed spiking solution B were added into the wells designated for all the time points (5, 15, 30, 45, 60 min). For 0-min, 400 μL of acetonitrile containing internal standards (Imipramine, Glipizide) were added to the wells of 0-min plate and then 90 μL of plasma was added. For the time points (0, 5, 15, 30, 45, 60 min), 90 μL of pre-warmed plasma was added to start timing. At 5, 15, 30, 45, 60 min, 400 μL of acetonitrile containing internal standard (Imipramine, Glipizide) were added to the wells of corresponding plates, respectively, to stop the reaction. […] Data was analysed with Microsoft Excel.

Data set [3] has as its target T3, MCM2 (P49736), BromoTag N-term (Homo sapiens, UniProt O60885+P40337, L387A).
T3 construct: comprising residues 368-440 of human Brd4; MCM2 (endogenous protein, fusion partner in the same polypeptide); expressed in transfected cells
In words: Degradation of BromoTag'ed MCM2 by AGB1. The format is cell-based.
Description: as §1

The target in a further data set is T4, BromoTag-Brd2 (Homo sapiens, UniProt O60885+P40337, L387A).
T4 construct: comprising residues 368-440 of human Brd4; Brd2 (endogenous protein, fusion partner in the same polypeptide); eGFP-P2A (upstream marker in the knock-in cassette) (N, cleaved yes); expressed in transfected cells; host or cells: HEK293, heterozygous CRISPR knock-in at the endogenous BRD2 locus
In words: Time-course degradation assay in heterozygous BromoTag-Brd2 HEK293 cells. The format is cell-based. The note with it: 500 nM. The method, then:
Time-course Degradation Assay. Time-course degradation assays using PROTACs AGB1, AGB2, and AGB3 were performed on the genotype verified heterozygous BromoTag-Brd2 HEK293 cell line. Heterozygous BromoTag-Brd2 HEK293 cells were plated at a density of 5×10^5 cells per well of a 6 healthy plate a day prior to initiation of the Timecourse assay. PROTAC's AGB1 & AGB2 were diluted in DMSO to a concentration of 1 mM prior to being further diluted 1:2000 in 2 mL of DMEM to a concentration of 500 nM per timepoint. PROTAC AGB3 was diluted in DMSO to a concentration of 2 mM prior to being further diluted 1:2000 in 2 mL of DMEM to a concentration of 1 μM per timepoint. Timepoint range was between 0-36 h. Treatment was applied in a staggered fashion to enable all timepoints to be harvested at the same time.
Western Blotting. All cells were harvested on ice with RIPA lysis, and extraction buffer (ThermoFisher Scientific, 89901) supplemented with protease inhibitor cocktail (Merck, 11697498001) and Benzonase® Nuclease (Sigma, E1014) before being store at −20° C. prior to use. Total protein quantity was determined using the BCA protein assay (#23225, Pierce, Rockford, Illinois). Protein concentration was determined using the BCA assay (ThermoFisher Scientific, 23225). Samples were then prepared and loaded onto NuPAGE™ 4-12% Bis-Tris Midi gels (ThermoFisher Scientific, WG1403A), followed by the transfer of the proteins onto nitrocellulose membranes (EMD Millipore). The membranes were blocked for 1 h prior to incubation with the primary antibodies using 5% Milk TBST. Membranes were probed for Brd2 (Abcam, Ab139690, 1:1000), Brd3 (Abcam, Ab50818, 1:4000), Brd4 (Abcam, Ab128874, 1:1000) or our polyclonal Brd4^BD2 L387A antibody. […] All western blots were analysed for band intensities using Image Lab from Bio-Rad (LI-COR, Biosciences). The data extracted from these blots were then plotted and analysed using Prism (v. 8.2.0, GraphPad).

T2 sequence (P40337 whole entry, other chains not shown, the tested form may be a part): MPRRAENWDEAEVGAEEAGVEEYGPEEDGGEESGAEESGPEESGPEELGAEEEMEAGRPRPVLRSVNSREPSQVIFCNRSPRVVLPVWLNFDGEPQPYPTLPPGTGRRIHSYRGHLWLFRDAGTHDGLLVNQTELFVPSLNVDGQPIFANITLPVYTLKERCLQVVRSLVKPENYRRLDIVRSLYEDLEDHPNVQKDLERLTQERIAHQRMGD
T1 sequence (P40337 whole entry, other chains not shown, the tested form may be a part): as above
T3 sequence (P40337 whole entry, other chains not shown, the tested form may be a part): as above
T4 sequence (P40337 whole entry, other chains not shown, the tested form may be a part): as above

For orientation: Dmax means the greatest extent of degradation seen. For `CC[C@@H](C(=O)OCCOCCOCCOCC(=O)N[C@H](C(=O)N1C[C@H](O)C[C@H]1C(=O)NCc1ccc(-c2scnc2C)cc1)C(C)(C)C)[C@@H]1N=C(c2ccc(Cl)cc2)c2c(sc(C)c2C)-n2c(C)nnc21` (single isomer, unassigned) [AGB1 (46)], the maximal degradation (Dmax) in data set [1], in data set [2] and in data set [3] was more than 95% throughout. The pDC50 is on record as more than 7.0 in data set [1] (BromoTag'ed PPM1H, C-term tag); 7.9 in data set [2] (BromoTag'ed BRD4, N-term tag); 8.0 in data set [3] (BromoTag'ed MCM2, N-term tag). Besides, the “plasma stability, levels remaining” value in “Plasma stability” was “no significant changes”. On BromoTag-Brd2, the “time to completely degrade BromoTag-Brd2” value is listed as not above 6 h.
